Where two headings read alike, the source gives them in different places.
What was measured:
[1] = test system: Interleukin 2 Receptor (CD25); assay: Plasma level of Interleukin 2 Receptor (CD25); type: in vivo, human; conditions: for Interleukin 2 Receptor (CD25) in plasma, number of subjects with undetectable levels / Interleukin 2 Receptor (CD25) in plasma, group average: n = 12; for Interleukin 2 Receptor (CD25) in plasma, number of subjects with undetectable levels: lower limit of detection 9.19 pg/ml; for Interleukin 2 Receptor (CD25) in plasma, group average: undetectable counted as 9.19 pg/ml
Description: After a screening visit at which blood was drawn to test for IgG antibody against HSV-1 and subjects were interviewed for inclusion/exclusion criteria, selected subjects returned for blood draws on day 1. After the blood draw on day 1, subjects in group A only were dosed with SADBE. A petrolatum donut was applied with a cotton swab to form about a 1 cm diameter donut on skin on the inner aspect of the upper arm. Then a separate cotton swab was dipped in a 2% SADBE solution (w/v) in DMSO, and the swab was then used to apply about 10-20 mg of solution over about a 1 cm diameter circle within the petrolatum donut. Immediately after application, the application site was covered with TEGADERM. Subjects were advised to remove the TEGADERM and rinse and wipe the spot three hours later. The group A subjects then returned for blood draws on days 15 and 57 and were queried about adverse events on those dates.
At this study visit where blood was drawn it was tested for blood cell counts, various cytokine levels, and anti-HSV-1 IgG quantitative levels.
All subjects had detectable IL-2 and the large majority had detectable IL-2 receptor.
For IL2R the detection limit was 9.19 pg/ml and the number of subjects who measured undetectable are listed. If a subject's IL2R was undetectable, the value of 9.19 pg/ml was used for that subject in detecting the average of the group. No subjects had undetectable IL2.

[2] = test system: herpes labialis outbreak; assay: Clinical trial of herpes labialis outbreaks after sensitization dose (Example 2); type: in vivo, human
Description: The median time to the next outbreak for the placebo group was 40 days vs more than 122 days for the 2.0% SADBE group, which difference was highly significant (P=0.009) (Palli 2017). SADBE is a topical immunosensitizer that induces a delayed-type hypersensitivity response and is commonly used in the treatment of verruca vulgaris and alopecia areata (Lee 1999; Silverberg 2000, Rokhshar 1998). […]
(p<0.05). The average days to the first outbreak after the sensitization dose was also measured. […] The A: placebo, 0% SADBE in DMSO.

[3] = Rash (erythema) from the sensitization dose (Example 2); type: in vivo, human; conditions: pooled treatment groups B and C; placebo 2 of 13
Text: Visit 1: Upon entering the study, patients are sensitized to squaric acid dibutyl ester (SADBE) by dipping a cotton-tipped swab in a 2% solution of SADBE in DMSO and swabbing a 1 cm^2 area on the forearm. Participants are told then to wait at least 2 weeks for their first treatment.

[4] = test system: herpes labialis outbreak; conditions: 2.0% SADBE in DMSO once to arm; placebo 40 days; P=0.009; previous trial (Palli 2017); cited from earlier work

In the case of `CCCCOc1c(OCCCC)c(=O)c1=O` [SADBE, 3,4-Dibutoxy-3-cyclobutene-1,2-dione], the “Interleukin 2 Receptor (CD25) in plasma, Sample/A1” value ([1]; A15 / group A day 1) is reported as 1.23, the “Interleukin 2 Receptor (CD25) in plasma, Sample minus A1” value ([1]; A15 minus group A day 1) is reported as 167.04 pg/mL and the “Interleukin 2 Receptor (CD25) in plasma, Sample/A1” value ([1]; A57 / group A day 1) is reported as 0.96. The “Interleukin 2 Receptor (CD25) in plasma, Sample minus A1” value ([1]; A57 minus group A day 1) was -26.24 pg/mL, the “Interleukin 2 Receptor (CD25) in plasma, number of subjects with undetectable levels” value ([1]; group A day 15 (A15)) was 1 and the “Interleukin 2 Receptor (CD25) in plasma, group average” value ([1]; group A day 15 (A15)) was 899.81 pg/mL. The “Interleukin 2 Receptor (CD25) in plasma, number of subjects with undetectable levels” value ([1]; group A day 57 (A57)) was 0, the “Interleukin 2 Receptor (CD25) in plasma, group average” value ([1]; group A day 57 (A57)) was 706.52 pg/mL and the “proportion who had a first outbreak between 30 and 120 days after receiving the sensitization dose” value ([2]; pooled groups B and C (2% SADBE in DMSO sensitization), placebo group A 4 of 14) was 5 of 26. The “median time to the next outbreak, outbreaks in the 21 days after the sensitization dose excluded” value ([2]; treatment group, counting from day of sensitization dose, placebo 56 days) was “greater than 120 days”, the “median time to the next outbreak” value ([2]; treatment group, from sensitization dose (2% SADBE), placebo 42 days, log rank P 0.009) was “greater than 120 days” and the “median time to the next outbreak, counting from day 21 after the sensitization dose” value ([2]; treatment group, placebo 35 days) was “greater than 99 days”. The “subsequent outbreak during the study time” value ([2]; treatment groups B and C receiving 2% SADBE in DMSO as sensitization dose) was “usually did not have a subsequent outbreak during the study time”, the “median time to next HSV outbreak in treated patients without visible erythema at application site” value ([2]; versus placebo) was “longer median time to the next HSV outbreak than patients receiving placebo” and the “subjects with rash (erythema) from the sensitization dose” value [3] was 17 of 28. For the same molecule, the “median time to the next outbreak” value [4] was “more than 122 days”.
